Source: patent publication US6921840B1 (The Trustees of the University of Pennsylvania, priority 1999, dated 2005)
Like-named read-outs stand apart in the source and are kept apart here.

How the values were obtained:
[1] = target: T1, serotonin transporter (SERT) expressed in LLC-PK1 cells (Rattus norvegicus, UniProt P31652); test: [125I]IPT competition binding, LLC-SERT membrane homogenates
T1 construct: host or cells: LLC-PK1 (LLC-SERT)
Excerpt: (§1) Three monoamine transporters expressed respectively in a common parental cell line, LLC-PK, (referred to as LLC-DAT. LLC-NET and LLC-SERT) were kindly provided by Dr. G. Rudnick of Yale University.

[2] = target: T2, dopamine transporter (DAT) expressed in LLC-PK1 cells (Rattus norvegicus, UniProt P23977); test: [125I]IPT competition binding, LLC-DAT membrane homogenates
T2 construct: host or cells: LLC-PK1 (LLC-DAT)
Excerpt: as §1

[3] = Partition coefficient octanol/buffer; type: physicochemical; conditions: 1-octanol/pH 7 buffer
SERT [4] = target: T3, SERT (Rattus norvegicus, UniProt P31652); test: Competition binding with [125I]IDAM in rat frontal cortical homogenate; set-up: The frontal cortex of rat brain were dissected and homogenized in 30 volumes of buffer; from tissue; host or cells: rat frontal cortex membrane homogenates (male Sprague-Dawley rats, control and PCA-lesioned)
Procedure: The homogenates were centrifuged at 20,000 g for 20 min. The resulting pellets were then re-suspended and recentrifuged. The final pellets were suspended in the same buffer and used for in vitro binding assays.
Various inhibitors were serially diluted with the buffer containing 0.1% BSA to overcome the stickiness and loss due to dilution. […] Incubation was carried out for 60 min at room temperature and then terminated by separation of bound from free radioligand by filtration through glass fiber filters (Schleicher & Schuell No. 25, Keene, N.H.) presoaked with 1% polyethylenimine. The filters were then washed three times with 3 ml of ice-cold […] Tris buffer and counted in a gamma counter (Packard 5000) with 70% efficiency. To study the effect of […], the homogenates were prepared in a sodium-free 50 mM Tris-HCl/5 mM KCl buffer.

SERT [5] = target: T3, SERT; test: In vivo competitive binding: drug pretreatment before [125I]IDAM; conditions: 2 mg/kg i.v. 5 min prior to tracer; 60 min after tracer
Procedure: Experiments were performed using groups of 3-4 animals per study. […] The reduction of regional specific binding in the drug-pretreated rats was compared to the control animals with saline pretreatment.

SERT [6] = target: T3, SERT; set-up: The frontal cortex of rat brain were dissected and homogenized in 30 volumes of buffer; from tissue; host or cells: rat frontal cortex membrane homogenates (male Sprague-Dawley rats, control and PCA-lesioned); conditions: Kung et al. 1992, cited from earlier work
[7] = target: T4, norepinephrine transporter (NET) expressed in LLC-PK1 cells (Homo sapiens, UniProt P23975); test: [125I]IPT competition binding, LLC-NET membrane homogenates
T4 construct: host or cells: LLC-PK1 (LLC-NET)
Excerpt: as §1

[8] = [125I]IPT ligand, LLC-PK1 membranes, read-out: Inhibition constant (Ki) SERT
[9] = [125I]IPT ligand, LLC-PK1 membranes, read-out: Inhibition constant (Ki) DAT

T2 sequence (P23977 whole entry): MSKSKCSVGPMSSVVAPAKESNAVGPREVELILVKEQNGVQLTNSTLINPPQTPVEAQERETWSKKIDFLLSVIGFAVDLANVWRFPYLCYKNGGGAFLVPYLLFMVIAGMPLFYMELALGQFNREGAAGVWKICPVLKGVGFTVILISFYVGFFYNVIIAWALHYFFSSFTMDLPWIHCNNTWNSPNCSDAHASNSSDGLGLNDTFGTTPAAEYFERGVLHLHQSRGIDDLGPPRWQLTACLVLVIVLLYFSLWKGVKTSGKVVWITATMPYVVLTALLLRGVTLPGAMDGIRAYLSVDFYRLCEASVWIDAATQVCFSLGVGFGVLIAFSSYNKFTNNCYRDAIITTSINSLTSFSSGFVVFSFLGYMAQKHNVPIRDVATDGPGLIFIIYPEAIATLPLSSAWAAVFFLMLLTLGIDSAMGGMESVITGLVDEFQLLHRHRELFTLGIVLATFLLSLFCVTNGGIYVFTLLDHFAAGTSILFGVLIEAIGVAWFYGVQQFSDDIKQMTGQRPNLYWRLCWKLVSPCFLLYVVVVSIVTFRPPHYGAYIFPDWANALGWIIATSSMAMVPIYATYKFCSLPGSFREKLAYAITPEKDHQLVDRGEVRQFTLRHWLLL
T3 sequence (P31652 whole entry): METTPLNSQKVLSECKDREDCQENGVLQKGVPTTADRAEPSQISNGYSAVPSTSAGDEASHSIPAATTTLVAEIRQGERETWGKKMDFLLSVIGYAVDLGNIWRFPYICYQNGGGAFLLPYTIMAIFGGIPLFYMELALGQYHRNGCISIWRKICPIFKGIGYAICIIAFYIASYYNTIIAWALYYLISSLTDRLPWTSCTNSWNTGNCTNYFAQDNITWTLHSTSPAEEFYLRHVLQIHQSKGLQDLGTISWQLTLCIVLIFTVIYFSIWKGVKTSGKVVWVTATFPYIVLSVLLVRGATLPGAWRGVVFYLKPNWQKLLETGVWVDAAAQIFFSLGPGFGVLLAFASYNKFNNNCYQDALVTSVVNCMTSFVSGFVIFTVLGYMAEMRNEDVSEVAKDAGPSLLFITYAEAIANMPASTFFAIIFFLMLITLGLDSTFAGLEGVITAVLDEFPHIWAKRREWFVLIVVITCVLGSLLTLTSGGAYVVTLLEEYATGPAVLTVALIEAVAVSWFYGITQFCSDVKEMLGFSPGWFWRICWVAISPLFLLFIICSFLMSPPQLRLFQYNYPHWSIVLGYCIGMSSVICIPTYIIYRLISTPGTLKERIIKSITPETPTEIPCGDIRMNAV
T1 sequence (P31652 whole entry): as above
T4 sequence (P23975 whole entry): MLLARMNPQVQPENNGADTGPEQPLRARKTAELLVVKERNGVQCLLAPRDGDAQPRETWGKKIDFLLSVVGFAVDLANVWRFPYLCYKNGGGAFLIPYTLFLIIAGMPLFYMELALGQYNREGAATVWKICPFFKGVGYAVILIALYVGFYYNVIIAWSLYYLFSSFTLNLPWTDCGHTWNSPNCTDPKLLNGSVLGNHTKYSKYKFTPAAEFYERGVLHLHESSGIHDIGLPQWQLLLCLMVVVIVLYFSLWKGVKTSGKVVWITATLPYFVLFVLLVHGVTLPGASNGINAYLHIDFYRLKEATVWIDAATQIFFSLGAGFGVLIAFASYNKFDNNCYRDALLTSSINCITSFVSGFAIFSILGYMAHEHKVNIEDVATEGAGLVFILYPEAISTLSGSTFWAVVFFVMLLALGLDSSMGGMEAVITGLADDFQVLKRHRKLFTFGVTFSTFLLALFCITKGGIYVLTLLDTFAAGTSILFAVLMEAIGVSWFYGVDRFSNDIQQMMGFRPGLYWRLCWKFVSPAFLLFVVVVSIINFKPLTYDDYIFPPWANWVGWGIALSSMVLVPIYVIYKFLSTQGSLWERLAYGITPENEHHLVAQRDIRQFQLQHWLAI

With `CN(C)Cc1ccccc1Sc1ccc(Br)cn1` [K102] as the compound, how does the Ki [1, 8] read?
Its Ki is over 1000 nM.

For `CN(C)Cc1ccccc1Sc1ccc(Br)cc1[N+](=O)[O-]` [K110], which Ki [1, 8] is on record?
The Ki was 1.9 nM.

What about the Ki [2, 9] of the same compound?
The Ki was 14700 ± 2200 nM.

Which results are given for `CN(C)Cc1ccccc1Sc1ccccc1N` [K109]?
Ki [1, 8]: 0.038 ± 0.01 nM; Ki [2, 9]: 1700 ± 600 nM

Which results are given for `CN(C)Cc1ccccc1Sc1ccc(I)cc1CO` [IDAM, 5-iodo-2-[[2-2[(dimethylamino)methyl]phenyl]thio]benzyl alcohol]?
Ki [1]: < 0.1 nM; selectivity for SERT ([1]; SERT versus DAT and NET): more than 1,000 fold; partition coefficient [3]: 473; Ki (SERT [4]): 0.08 nM; effect of pretreatment on specific binding of [125I]IDAM in rat brain regions (SERT [5]): dramatically reduced; Ki [2, 9]: > 10000 nM

Which results are given for `COC(=O)C(c1ccccc1)C1CCCCN1` (centres unmarked) [methylphenidate]?
Ki (SERT [4]): > 1000 nM; Ki for inhibition of [125I]IDAM binding (SERT [4]; 0.2 nM [125I]IDAM, rat frontal cortical homogenate): much less potent; effect of pretreatment on specific binding of [125I]IDAM in rat brain regions (SERT [5]): no effect

Which Ki [1, 8] does the source give for `Cc1ccccc1Nc1ccc(I)cc1CN(C)C` [K99037] here?
The Ki was 27.3 ± 6.9 nM.

With `CNCc1ccccc1Sc1ccc(I)cc1CO` [K99032] as the compound, how does the Ki [1, 8] read?
Its Ki is under 0.01 nM.

Which Kd (SERT [6]) does the source give for `CNCCC(Oc1ccc(I)cc1C)c1ccccc1` (centres unmarked) [4-I-tomoxetine] here?
Its Kd is 0.04 nM.

What about the nonspecific binding (SERT [6]; at Kd value) of the same compound?
The nonspecific binding was over 25%.

Which Ki [1, 8] does the source give for `CCOCc1cc(I)ccc1Sc1ccccc1CN(C)C` [K119] here?
The Ki was 0.234 nM.

What about the Ki [2, 9] of the same compound?
The Ki was 11100 ± 1100 nM.

With `CC(=O)OCc1cc(Br)ccc1Sc1ccccc1CN(C)C` [K68] as the compound, how does the Ki [1, 8] read?
The Ki was 2.42 ± 0.06 nM.

And the Ki [2, 9]?
Its Ki is 20.4 ± 1.55 nM.

What about the Ki ([7]; [125I]IPT ligand, LLC-PK1 membranes, read-out: Inhibition constant (Ki) NET) of the same compound?
Its Ki is 420 ± 62.5 nM.

Which Ki [1] does the source give for `COCc1cc(I)ccc1Sc1ccccc1CN(C)C` [K104] here?
The Ki was 0.02 nM.

What about the Ki [2] of the same compound?
The Ki was 11000 ± 200 nM.

What about the Ki [7] of the same compound?
Its Ki is 155 ± 18.7 nM.
